Entries after “also recorded” stand apart in the source; their conditions may differ. Where two headings read alike, the source gives them in different places.
Experiments:
[1] = system: NVHL rats; assay: Prepulse inhibition of the acoustic startle response (PPI) in NVHL rats; type: in vivo, Sprague-Dawley rats; conditions: adult NVHL rats
Protocol: To assess whether juvenile oxidative stress leads to behavioral deficits, a behavioral paradigm was used for testing in both animal models and schizophrenia patients. Prepulse inhibition of the acoustic startle response (PPI) is a measure of sensorimotor gating that is reduced in patients (Geyer and Braff, 1987) and NVHL rats (Lipska et al., 1995). PPI was tested in adult sham (n=11), NAC-treated sham (n=12), NVHL (n=9), and NAC-treated NVHL rats (n=17). In addition to loss of PVI maturation and electrophysiological anomalies, developmental oxidative stress in juvenile NVHL rats can cause schizophrenia-relevant adult behavioral deficits.
The beneficial effect of NAC treatment includes a large postnatal treatment that starts prior to the lesion and stops once rats become young adults. For full translational value one determines whether NAC is efficacious when started at an age that corresponds to the time when prodromal stages can be identified in humans. In another set of rats, NAC was administered in the drinking water starting at P35, an age that in rats is equivalent to early adolescence. For PPI deficits was tested in adult SHAM (n=15), untreated NVHL (n=12), and NAC-treated NVHL rats (n=14).
Ebselen is a glutathione peroxidase (GPx) mimic (Muller et al., 1984) that induces GPx expression (Kil et al., 2007) and enhances GSH levels in neurons, replenishing GSH depleted by neurotoxic mechanisms (Pawlas and Malecki, 2007). PPI was tested in adult vehicle-treated SHAM (n=10), Ebselen-treated SHAM (n=7), vehicle-treated NVHL (n=8), and Ebselen-treated NVHL rats (n=9), and Ebselen treatment during adolescence reversed PPI deficits in NVHL rats (as shown in FIG. 15D).
In another group of rats, the effects of the NADPH oxidase inhibitor Apocynin was assessed while delivering through juvenile and adolescent stages. PPI was tested in adult vehicle-treated SHAM (n=10), apocynin-treated SHAM (n=11), vehicle treated NHVL (n=7), and apocynin-treated NVHL (n=5). As illustrated in FIG. 15C a reversal of PPI deficits was observed.
Antioxidant pretreatment regimen: NAC (BioAdvantexPharma, Mississauga, Ontario, Canada) was administered in the drinking water at 900 mg/l. NAC treatment started at P5 or at P35, and previous work in mice has shown that NAC consumed by the dam is transmitted to the pups through her milk (das Neves Duarte et al., 2012). NAC treatment ended at P50. Fresh solutions were prepared every 2-3 days. Ebselen (Sound Pharmaceuticals Inc., Seattle, WA) was administered i.p. 5 days a week starting at P35 until the day of PPI testing (P60). Stock ebselen solution (20 mg/ml DMSO, frozen aliquots) was diluted 1:5 in sterile water and administered at a dose of 10 mg/kg. Control animals received an equivalent concentration of DMSO diluted 1:5 in water. Apocynin (Sigma-Aldrich, St. Louis, MO) was administered in the drinking water at a target dose of 100 mg/kg (Nwokocha et al., 2013). Prior to weaning at P21, drinking water contained a dose of 2 g apocynin per 0.5 1 of water, to ensure delivery through the dam's milk. Apocynin concentration was lowered after weaning to 750 mg/1 to best approximate the target dose. Treatment lasted from P5 to P50 with fresh solutions prepared every other day.
Prepulse inhibition: Starting at P60, both male and female rats were tested for PPI, as described previously (Feleder et al., 2010). As PPI deficits in NVHL rats are most evident when rats are challenged with apomorphine (Lipska et al., 1995), we injected apomorphine (0.1 mg/kg, i.p.) immediately prior to the PPI test session. Rats were placed in a sound- attenuated startle chamber (San Diego Instruments, San Diego, CA) with a 70 dB background white noise. After a 5 min adaptation period, the PPI test was initiated with pseudorandom trials every 15 to 25 seconds. Either pulse (120 dB), prepulse (75 dB, 80 dB, or 85 dB), no pulse or prepulse +pulse were delivered. […]

[2] = Solubility of ebselen in aqueous solutions; type: physicochemical; conditions: 25° Celsius
Protocol: Ebselen is the only active ingredient administered in a formulation. […] Ebselen acts as a catalyst and is not consumed during detoxification reactions (Muller et. al, 1988). An embodiment of an ebselen formulation is >99% pure as confirmed by HPLC. The synthesis of this formulation is provided by Rhodia Pharma Solutions and includes capsules that are hermetically sealed in blister packs. Each capsule contains 200 mg the ebselen formulation or SPI-1000 (placebo).

[3] = Ph-1 placebo-controlled, randomized, single ascending dose study: pharmacokinetics; type: in vivo; conditions: humans, single dose 200 mg to 1600 mg
Protocol: (§1) Ebselen has excellent oral availability (Fisher et al., 1988). Brain level was about 20% of the plasma level (Imai, et al., 2001, Ullrich, et al., 1996). […] A Ph-1 study was conducted in 32 humans in a placebo-controlled, randomized, single ascending dose design. Ebselen ranged from 200 mg to 1600 mg in the formulation. (1) Pharmacokinetics: The PK parameters of ebselen and its three metabolites were published (Lynch, et al., 2009). […] The tabulated side effects were published in Lynch, et al., 2009.

[4] = system: healthy males and females; assay: Ph-1 placebo-controlled, randomized, single ascending dose study: safety; type: in vivo, humans
Protocol: as §1

[5] = Repeat dosing 28-day study, monkey; conditions: cynomolgus monkey, in vivo, Cynomolgus monkeys, read-out: no-observable-effect-level (NOAEL)
Protocol: (§2) Seven acute and repeated dose toxicology studies were conducted in Sprague-Dawley rats, Sinclair miniature swine, and Cynomolgus monkey, and three genotoxicology studies.

[6] = Repeat dosing 28-day study, mini-pig; set-up: species or system Sinclair miniature swine; conditions: Sinclair, minipig, in vivo, read-out: no-observable-effect-level (NOAEL)
Protocol: as §2

[7] = system: rats; assay: Repeat dosing 28-day study, rats; type: in vivo, Sprague-Dawley rats
Protocol: as §2

[8] = system: rats; assay: Chronic toxicity studies 26 and 52 weeks, rats; type: in vivo
Protocol: as §2

[9] = system: mini-pigs; assay: Chronic toxicity studies 26 and 52 weeks, mini-pigs; type: in vivo
Protocol: as §2

[10] = in vivo; cited from earlier work
[11] = in vivo; cited from earlier work; remark: listed apart in the source
[12] = system: neurons; conditions: cited from earlier work
[13] = system: N-methyl-D-asparatate receptors redox modulatory site; conditions: cited from earlier work
[14] = 32 humans, single dose 200 mg to 1600 mg

COc1cc(C(C)=O)ccc1O [Apocynin]
effect on PPI deficit ([1]; drinking water, target dose 100 mg/kg, P5 to P50, 100 mg/kg): prevented; also recorded: reversal | effect on PPI deficit ([1]; drinking water, target dose 100 mg/kg, P5 to P50, listed as apocynin, 100 mg/kg): significant lesion by treatment interaction

O=c1c2ccccc2[se]n1-c1ccccc1 [Ebselen, 2-Phenyl-1,2-benzisoselenazol-3(2H)-one]
solubility in aqueous solutions [2]: slightly soluble | Cmax ([3]; both sexes, human, in vivo, oral, range of means): 30.3 to 83.4 ng/mL | AUC(0-t) ([3]; both sexes, human, in vivo, oral, range of means, read-out: mean AUC0-t): 117 to 881 ng·h/mL | half-life ([3]; both sexes, human, in vivo, oral, range of means, read-out: mean t1/2): 6.4 to 16.7 h | Tmax ([3]; both sexes, human, in vivo, oral, range of medians, read-out: median Tmax): 1.5 to 2.3 h | predominate metabolite [3]: 2-glucuronyl selenobenzanilide | serious adverse events or discontinuation due to an AE [4, 14]: no serious adverse events | severity of AEs [4, 14]: mild or moderate | trends in clinical laboratory and ECG findings [4, 14]: No treatment- or dose-related trends | safety and tolerability ([4]; capsules, single oral dose up to 1600 mg): safe and well tolerated | NOAEL at 28 days [5]: 2000 mg/kg | NOAEL at 28 days [6]: > 2000 mg/kg | no-observable-effect-level (NOAEL) [7]: not identified | non-toxic effect level [8]: 31.6 mg/kg | non-toxic effect level [9]: 178 mg/kg | effect on PPI deficit ([1]; 10 mg/kg i.p. 5 days a week from P35 until PPI testing, 10 mg/kg): reversed; also recorded: significant lesion status by treatment interaction | effect on PPI deficit ([1]; 10 mg/kg i.p. 5 days a week from P35 until PPI testing, listed as ebselen, 10 mg/kg): prevented | oral availability [10]: excellent | brain level as share of the plasma level [11]: about 20% | GSH levels in neurons (basal and stressed conditions) [12]: increased | glutamate-induced GSH depletion ([12]; combined with glutamate): neutralized; also recorded: Neuroprotective effect | GSH levels in neurons (basal and stressed conditions) ([12]; listed as ebselen): dose-dependently increases; also recorded: dose-dependent rise | effect on NMDA receptor redox modulatory site [13]: modulates | neuron viability [13]: increases

Reference: US20240050409A1, “Methods and Compositions for Treating Psychotic Disorders” (SOUND PHARMACEUTICALS INCORPORATED, priority 2014, published 2024)
